Holding throughout (type): cell-based
In one assay the test system is LNCaP. The assay is described as follows: Cell growth inhibition assay, prostate cancer cell line LNCaP (medium with 10 ng/mL IL-6). The settings on record: Homo sapiens, medium supplemented with 10 ng/mL of IL-6, 10,000 cells/well.
In another assay the target is T1, STAT3 (Homo sapiens, UniProt P40763).
T1 construct: plasmid pSTAT3-TA-luc), which contains a stably operating STAT3 promoter; endogenous in cells
Put plainly: STAT3 reporter gene assay (luciferase), LNCaP stable cell line (pSTAT3-TA-luc), IL-6 stimulation. In outline:
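LNCaP cells stably carrying pSTAT3-TA-luc, in RPMI1640 with 3% DCC-FBS, were treated with compound and then stimulated with 10 ng/mL IL-6 for 24–48 h at 37 °C. Luciferase activity was measured in lysates. A parallel plate measured viability by CellTiter-Glo, with stimulated 0.1% DMSO wells as the positive control.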

For a further assay, the system named is MDA-MB-231. The assay is described as follows: Cell growth inhibition assay, breast cancer cell line MDA-MB-231. The conditions noted are these: Homo sapiens; MDA-MB-231 breast cancer cell line, 5,000 cells/well.
A further assay deals with DU-145. Put plainly: Cell growth inhibition assay, prostate cancer cell line DU-145. The settings on record: Homo sapiens, DU-145 prostate cancer cell line. In outline:
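Cells were seeded at 3,000/well (HCT116, DU-145) or 5,000/well (SW626 and the others) and exposed to serial compound dilutions for 72 to 96 h at 37 °C under 5% CO2. Viability was read as CellTiter-Glo luminescence against 0.1% DMSO and cell-free wells.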

T1 sequence (P40763 whole entry): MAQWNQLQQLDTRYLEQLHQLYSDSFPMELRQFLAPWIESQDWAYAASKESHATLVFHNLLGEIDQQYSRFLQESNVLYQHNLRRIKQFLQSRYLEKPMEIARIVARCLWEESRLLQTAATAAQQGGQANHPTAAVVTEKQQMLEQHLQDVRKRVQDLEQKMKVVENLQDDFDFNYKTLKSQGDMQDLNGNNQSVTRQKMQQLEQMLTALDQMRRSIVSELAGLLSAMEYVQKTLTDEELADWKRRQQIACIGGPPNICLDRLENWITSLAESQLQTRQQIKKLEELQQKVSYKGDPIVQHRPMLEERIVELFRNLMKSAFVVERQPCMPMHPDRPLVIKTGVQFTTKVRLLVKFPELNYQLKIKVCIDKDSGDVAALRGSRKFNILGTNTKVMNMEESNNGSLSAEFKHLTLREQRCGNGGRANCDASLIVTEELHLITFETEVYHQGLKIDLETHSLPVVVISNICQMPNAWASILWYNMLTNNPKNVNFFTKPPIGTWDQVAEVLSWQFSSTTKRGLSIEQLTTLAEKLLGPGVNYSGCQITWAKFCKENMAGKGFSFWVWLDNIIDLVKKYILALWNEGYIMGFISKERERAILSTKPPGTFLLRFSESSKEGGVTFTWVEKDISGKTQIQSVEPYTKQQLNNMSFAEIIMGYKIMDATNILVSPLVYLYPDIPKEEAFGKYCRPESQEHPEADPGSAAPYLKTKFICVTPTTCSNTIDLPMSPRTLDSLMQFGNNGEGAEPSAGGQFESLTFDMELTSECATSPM

As to `CC(C)(c1cc(Br)cc(NC(=O)c2cc3cc(NS(C)(=O)=O)ccc3s2)c1)c1cccc(OCC(N)=O)c1` [Example 43, N-(3-(2-(3-(2-amino-2-oxoethoxy)phenyl)propan-2-yl)-5-bromophenyl)-5-(methylsulfonamido)benzo[b]thiophene-2-carboxamide], the IC50 with LNCaP was 5.8 µM; against STAT3, 2.7 µM; in the assay with MDA-MB-231 it was 3.6 µM; with DU-145, 4.9 µM.

For `CCC(CC)(c1cc(NC(=O)c2cc3cc(NS(C)(=O)=O)ccc3s2)cc(OC)c1)c1cc(OC)cc(OC(F)(F)F)c1` [Example 54, N-(3-methoxy-5-(3-(3-methoxy-5-(trifluoromethoxy)phenyl)pentan-3-yl)phenyl)-5-(methylsulfonamido)benzo[b]thiophene-2-carboxamide], the concentration for half-maximal inhibition (IC50) in the assay with LNCaP turned out to be 0.17 µM; at STAT3, 0.048 µM; in the assay on MDA-MB-231 it was 0.036 µM; with DU-145 it was 0.046 µM.

Take `CN1CCN(Cc2cccc(C(C)(C)c3cc(Br)cc(NC(=O)c4cc5cc(NS(C)(=O)=O)ccc5s4)c3)c2)CC1` [Example 115, N-(3-bromo-5-(2-(3-((4-methylpiperazin-1-yl)methyl)phenyl)propan-2-yl)phenyl)-5-(methylsulfonamido)benzo[b]thiophene-2-carboxamide]: the IC50 is 5.6 µM in the assay on LNCaP, 2.5 µM against STAT3, 1.5 µM with MDA-MB-231 and 1.7 µM with DU-145.

With `CC(C)(C)OC(=O)N1CCN(Cc2cccc(C(C)(C)c3cc(Br)cc(NC(=O)c4cc5ccc(NS(C)(=O)=O)cc5[nH]4)c3)c2)CC1` [Example 117, tert-butyl 4-(3-(2-(3-bromo-5-(6-(methylsulfonamido)-1H-indole-2-carboxamido)phenyl)propan-2-yl)benzyl)piperazine-1-carboxylate], the half-inhibitory concentration (IC50) worked out at 2.6 µM in the assay on LNCaP, 0.23 µM against STAT3, 2.2 µM in the assay with MDA-MB-231 and 1.2 µM in the assay with DU-145.

`CS(=O)(=O)Nc1ccc2sc(C(=O)Nc3cc(Br)cc(C4(c5ccc(F)cc5F)CC4)c3)cc2c1` [Example 426, N-(3-bromo-5-(1-(2,4-difluorophenyl)cyclopropyl)phenyl)-5-(methylsulfonamido)benzo[b]thiophene-2-carboxamide]: the IC50 in the assay with LNCaP came to 0.3 µM; against STAT3, 0.082 µM; in the assay on MDA-MB-231 it was 0.074 µM; with DU-145, 0.13 µM.

What is called IC50 is the concentration at which inhibition is half-maximal. A lower IC50 goes with inhibition by little substance.

The values above are taken from patent US10562912B2 (C&C Research Laboratories, priority 2013, dated 2020).
